What was measured:
Assay in all cases: Recombinant HDAC activity assay
Assay type in all cases: biochemical
[1] = target: T1, recombinant HDAC6 (Homo sapiens, UniProt Q9UBN7); conditions: 2 h, read-out: % HDAC activity, Class IIb HDACs, 6
T1 sequence (Q9UBN7 1-1215): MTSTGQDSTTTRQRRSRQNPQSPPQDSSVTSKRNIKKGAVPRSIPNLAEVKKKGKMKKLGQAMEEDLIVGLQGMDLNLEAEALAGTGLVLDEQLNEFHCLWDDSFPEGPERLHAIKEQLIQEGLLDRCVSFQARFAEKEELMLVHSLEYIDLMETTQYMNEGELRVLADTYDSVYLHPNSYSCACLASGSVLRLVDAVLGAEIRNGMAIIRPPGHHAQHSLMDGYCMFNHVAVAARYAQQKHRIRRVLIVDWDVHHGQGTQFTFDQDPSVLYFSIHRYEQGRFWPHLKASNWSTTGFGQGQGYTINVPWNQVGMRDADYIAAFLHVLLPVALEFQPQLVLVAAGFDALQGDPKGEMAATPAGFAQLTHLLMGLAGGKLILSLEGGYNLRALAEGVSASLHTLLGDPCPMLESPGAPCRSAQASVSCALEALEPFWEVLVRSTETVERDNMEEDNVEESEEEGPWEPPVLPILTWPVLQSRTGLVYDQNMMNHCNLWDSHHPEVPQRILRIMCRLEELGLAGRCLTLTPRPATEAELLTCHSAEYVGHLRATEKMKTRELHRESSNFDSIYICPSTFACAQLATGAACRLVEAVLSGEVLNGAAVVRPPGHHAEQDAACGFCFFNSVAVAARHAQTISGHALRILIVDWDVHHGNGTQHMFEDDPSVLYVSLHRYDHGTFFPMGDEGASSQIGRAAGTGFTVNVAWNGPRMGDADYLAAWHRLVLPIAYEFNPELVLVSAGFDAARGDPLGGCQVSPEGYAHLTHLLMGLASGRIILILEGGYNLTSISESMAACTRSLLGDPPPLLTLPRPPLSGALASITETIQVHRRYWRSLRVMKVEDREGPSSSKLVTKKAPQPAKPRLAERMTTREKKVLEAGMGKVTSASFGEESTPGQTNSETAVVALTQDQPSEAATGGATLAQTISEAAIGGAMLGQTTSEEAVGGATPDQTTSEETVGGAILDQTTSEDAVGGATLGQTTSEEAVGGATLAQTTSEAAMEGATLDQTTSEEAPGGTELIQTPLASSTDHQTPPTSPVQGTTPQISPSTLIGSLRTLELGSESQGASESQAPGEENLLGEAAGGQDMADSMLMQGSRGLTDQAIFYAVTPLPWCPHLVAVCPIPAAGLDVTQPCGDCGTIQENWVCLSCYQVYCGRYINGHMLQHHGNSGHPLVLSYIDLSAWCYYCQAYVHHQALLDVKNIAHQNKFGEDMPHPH

[2] = target: T2, recombinant HDAC10 (Homo sapiens, UniProt Q969S8); conditions: 2 h, read-out: % HDAC activity, Class IIb HDACs, 10
T2 sequence (Q969S8 1-669): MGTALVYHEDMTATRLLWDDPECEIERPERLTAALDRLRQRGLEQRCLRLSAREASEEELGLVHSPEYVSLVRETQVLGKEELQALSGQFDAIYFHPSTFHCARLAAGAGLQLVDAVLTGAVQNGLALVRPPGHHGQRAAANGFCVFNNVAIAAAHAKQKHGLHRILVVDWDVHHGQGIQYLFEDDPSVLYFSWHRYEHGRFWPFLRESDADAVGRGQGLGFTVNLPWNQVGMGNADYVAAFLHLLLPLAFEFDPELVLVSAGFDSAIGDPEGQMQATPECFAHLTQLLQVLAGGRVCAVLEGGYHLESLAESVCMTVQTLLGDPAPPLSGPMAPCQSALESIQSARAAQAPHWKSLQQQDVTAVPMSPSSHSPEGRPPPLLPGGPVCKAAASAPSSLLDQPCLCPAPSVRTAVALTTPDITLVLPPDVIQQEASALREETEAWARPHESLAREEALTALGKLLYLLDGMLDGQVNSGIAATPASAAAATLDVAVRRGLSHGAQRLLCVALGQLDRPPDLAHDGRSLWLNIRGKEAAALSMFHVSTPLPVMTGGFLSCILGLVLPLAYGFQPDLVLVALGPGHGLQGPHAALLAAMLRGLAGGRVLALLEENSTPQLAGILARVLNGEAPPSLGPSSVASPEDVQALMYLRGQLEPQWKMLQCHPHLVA

[3] = target: recombinant HDAC1 (Homo sapiens, UniProt Q13547); conditions: 2 h, read-out: % HDAC activity, Class I HDACs, 1
[4] = target: recombinant HDAC3 (Homo sapiens, UniProt O15379); conditions: 2 h, read-out: % HDAC activity, Class I HDACs, 3
[5] = target: T3, recombinant HDAC8 (Homo sapiens, UniProt Q9BY41); conditions: 2 h, read-out: % HDAC activity, Class I HDACs, 8
T3 sequence (Q9BY41 1-377): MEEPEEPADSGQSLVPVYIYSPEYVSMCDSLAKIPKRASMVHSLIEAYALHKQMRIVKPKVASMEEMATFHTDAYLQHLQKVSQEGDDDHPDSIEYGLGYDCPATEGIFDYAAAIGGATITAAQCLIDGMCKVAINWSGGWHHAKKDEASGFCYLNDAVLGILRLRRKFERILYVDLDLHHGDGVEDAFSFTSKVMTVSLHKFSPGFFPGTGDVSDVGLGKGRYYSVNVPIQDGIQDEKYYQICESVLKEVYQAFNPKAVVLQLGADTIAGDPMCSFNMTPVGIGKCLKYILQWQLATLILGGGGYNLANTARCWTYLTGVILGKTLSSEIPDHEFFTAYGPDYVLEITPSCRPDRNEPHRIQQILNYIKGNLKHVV

[6] = target: recombinant HDAC2 (Homo sapiens, UniProt Q92769); conditions: 2 h, read-out: % HDAC activity, Class I HDACs, 2
[7] = target: recombinant HDAC4 (Homo sapiens, UniProt P56524); conditions: 2 h, read-out: % HDAC activity, Class IIa HDACs, 4
recombinant HDAC4, sequence (P56524 whole entry): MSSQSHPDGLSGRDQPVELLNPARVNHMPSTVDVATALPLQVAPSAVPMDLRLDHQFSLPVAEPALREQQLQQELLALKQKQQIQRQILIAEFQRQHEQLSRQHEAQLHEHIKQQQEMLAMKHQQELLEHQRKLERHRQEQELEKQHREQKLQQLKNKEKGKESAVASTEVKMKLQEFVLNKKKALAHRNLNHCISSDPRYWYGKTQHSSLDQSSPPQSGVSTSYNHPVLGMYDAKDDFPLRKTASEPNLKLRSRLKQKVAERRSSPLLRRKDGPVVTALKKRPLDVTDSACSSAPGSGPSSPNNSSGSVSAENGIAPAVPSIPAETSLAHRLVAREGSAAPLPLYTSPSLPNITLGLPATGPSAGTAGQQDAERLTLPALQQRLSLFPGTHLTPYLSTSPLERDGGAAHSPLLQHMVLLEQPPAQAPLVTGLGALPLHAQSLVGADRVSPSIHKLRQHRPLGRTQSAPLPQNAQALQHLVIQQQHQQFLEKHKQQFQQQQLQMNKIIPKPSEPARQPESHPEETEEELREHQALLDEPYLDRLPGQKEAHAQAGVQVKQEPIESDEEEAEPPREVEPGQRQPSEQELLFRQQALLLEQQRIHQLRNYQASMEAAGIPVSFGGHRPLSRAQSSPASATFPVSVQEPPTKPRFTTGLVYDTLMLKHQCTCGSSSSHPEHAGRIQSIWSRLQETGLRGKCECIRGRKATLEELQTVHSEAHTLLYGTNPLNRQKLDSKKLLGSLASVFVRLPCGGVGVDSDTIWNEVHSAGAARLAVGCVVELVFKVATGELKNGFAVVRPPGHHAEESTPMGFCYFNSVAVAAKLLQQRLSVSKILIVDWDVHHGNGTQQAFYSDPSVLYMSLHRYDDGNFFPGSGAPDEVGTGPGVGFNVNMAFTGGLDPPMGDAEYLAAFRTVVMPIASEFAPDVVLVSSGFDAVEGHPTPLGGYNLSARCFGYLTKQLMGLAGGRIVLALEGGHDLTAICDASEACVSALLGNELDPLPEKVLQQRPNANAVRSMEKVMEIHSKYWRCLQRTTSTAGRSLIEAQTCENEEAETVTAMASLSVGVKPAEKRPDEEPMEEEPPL

recombinant HDAC2, sequence (Q92769 whole entry): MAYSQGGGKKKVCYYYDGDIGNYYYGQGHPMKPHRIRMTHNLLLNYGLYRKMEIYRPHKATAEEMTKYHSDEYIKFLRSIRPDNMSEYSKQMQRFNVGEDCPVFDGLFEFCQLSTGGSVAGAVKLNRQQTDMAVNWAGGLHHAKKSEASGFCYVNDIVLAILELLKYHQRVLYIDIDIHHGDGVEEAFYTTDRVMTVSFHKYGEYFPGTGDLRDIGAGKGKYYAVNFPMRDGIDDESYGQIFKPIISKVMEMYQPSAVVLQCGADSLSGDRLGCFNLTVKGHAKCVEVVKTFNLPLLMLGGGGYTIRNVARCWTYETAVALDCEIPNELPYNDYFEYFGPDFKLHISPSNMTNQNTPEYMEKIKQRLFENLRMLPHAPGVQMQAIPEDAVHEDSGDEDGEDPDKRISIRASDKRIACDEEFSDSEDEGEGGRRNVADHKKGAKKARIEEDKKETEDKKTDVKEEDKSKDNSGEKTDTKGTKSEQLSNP
recombinant HDAC3, sequence (O15379 whole entry): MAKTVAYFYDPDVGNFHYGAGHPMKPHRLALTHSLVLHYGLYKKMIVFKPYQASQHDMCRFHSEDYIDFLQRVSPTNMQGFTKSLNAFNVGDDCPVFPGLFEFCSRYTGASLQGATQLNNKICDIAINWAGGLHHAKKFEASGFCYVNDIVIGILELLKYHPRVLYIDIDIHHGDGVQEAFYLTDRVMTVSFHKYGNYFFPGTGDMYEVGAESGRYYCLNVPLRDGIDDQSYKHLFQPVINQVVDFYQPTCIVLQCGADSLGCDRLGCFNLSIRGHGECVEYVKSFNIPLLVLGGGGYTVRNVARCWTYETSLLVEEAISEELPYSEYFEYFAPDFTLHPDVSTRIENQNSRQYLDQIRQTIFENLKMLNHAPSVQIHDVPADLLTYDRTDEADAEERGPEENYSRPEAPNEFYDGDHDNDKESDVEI
recombinant HDAC3, sequence (Q9Y618 395-489 partner limits assumed): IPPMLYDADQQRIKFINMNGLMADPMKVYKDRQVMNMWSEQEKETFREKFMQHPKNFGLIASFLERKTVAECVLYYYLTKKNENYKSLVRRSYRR
recombinant HDAC1, sequence (Q13547 whole entry): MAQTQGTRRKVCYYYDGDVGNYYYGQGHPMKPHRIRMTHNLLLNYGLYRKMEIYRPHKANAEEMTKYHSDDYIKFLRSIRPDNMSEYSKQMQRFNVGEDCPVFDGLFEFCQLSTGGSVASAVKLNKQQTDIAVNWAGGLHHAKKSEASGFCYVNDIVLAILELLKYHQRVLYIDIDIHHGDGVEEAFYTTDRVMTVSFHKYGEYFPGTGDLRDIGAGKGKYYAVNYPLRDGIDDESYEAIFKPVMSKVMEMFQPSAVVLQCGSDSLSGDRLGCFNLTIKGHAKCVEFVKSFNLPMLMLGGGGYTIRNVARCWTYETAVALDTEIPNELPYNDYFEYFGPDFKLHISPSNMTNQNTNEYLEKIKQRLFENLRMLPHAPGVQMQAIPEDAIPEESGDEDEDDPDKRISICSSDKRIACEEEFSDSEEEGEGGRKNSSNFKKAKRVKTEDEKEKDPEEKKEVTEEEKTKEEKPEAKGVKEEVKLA

remaining activity at 50 µM [1]: 38.8%
remaining activity at 50 µM [2]: 35.8%
remaining activity at 50 µM [3]: 35.8%
remaining activity at 50 µM [4]: 35.1%
remaining activity at 50 µM [5]: 32.3%
remaining activity at 50 µM [6]: 35%
remaining activity at 50 µM [7]: 92.8%
Structure (SMILES): Cc1cc(O)c2c(c1)C(=O)c1cc(O)cc(O)c1C2=O [Emodin]

Reference: paper PMC5508980 (Molecular nutrition & food research, 2017)
